US10927098B2, “Hydroxyalkyl-substituted triazole derivatives and uses thereof” (Bayer Pharma Aktiengesellschaft, priority 2016, dated 2021)
pIC50: −log10 of the molar value.

Columns and labels:
[1] = biological target: T1, human V2 receptor (Homo sapiens, UniProt P30518); assay: Cellular in vitro assay for determining vasopressin receptor activity, V2 receptor cell line (CRE-luciferase); type: cell-based; conditions: CHO cell line transfected with the human V2 receptor; [Arg8]-vasopressin at EC50 concentration; read-out: IC50 hV2
T1 construct: expressed in transfected cells; host or cells: CHO K1 (ATCC) expressing firefly luciferase under a CRE-responsive promoter
Method: (§1) B-1. Cellular In Vitro Assay for Determining Vasopressin Receptor Activity
(§2) The identification of agonists and antagonists of the V1a and V2 vasopressin receptors from humans, rats and dogs as well as the quantification of the activity of the compounds of the invention is carried out using recombinant cell lines. These cell lines originally derive from a hamster's ovary epithelial cell (Chinese Hamster Ovary, CHO K1, ATCC: American Type Culture Collection, Manassas, Va. 20108, USA). The test cell lines constitutively express the human, rat or dog V1a or V2 receptors. In case of the Gαq-coupled V1a receptors, cells are also stably transfected with a modified form of the calcium-sensitive photoproteins aequorin (human and rat V1a) or obelin (dog Via), which, after reconstitution with the cofactor coelenterazine, emit light when there are increases in free calcium concentrations [Rizzuto R, Simpson A W, Brini M, Pozzan T, Nature 358, 325-327 (1992); Illarionov B A, Bondar V S, Illarionova V A, Vysotski E S, Gene 153 (2), 273-274 (1995)]. The resulting vasopressin receptor cells react to stimulation of the recombinantly expressed V1a receptors by intracellular release of calcium ions, which can be quantified by the resulting photoprotein luminescence. The Gs-coupled V2 receptors are stably transfected into cell lines expressing the gene for firefly luciferase under control of a CRE-responsible promoter. Activation of V2 receptors induces the activation of the CRE-responsive promoter via cAMP increase, thereby inducing the expression of firefly luciferase. The light emitted by photoproteins of V1a cell lines as well as the light emitted by firefly luciferase of V2 cell lines corresponds to the activation or inhibition of the respective vasopressin receptor. The bioluminescence of the cell lines is detected using a suitable luminometer [Milligan G, Marshall F, Rees S, Trends in Pharmacological Sciences 17, 235-237 (1996)].
Vasopressin V2 Receptor Cell Lines:
On the day before the assay, the cells are plated out in culture medium (DMEM/F12, 2% FCS, 2 mM glutamine, 10 mM HEPES) in 384-well microtiter plates and kept in a cell incubator (96% humidity, 5% v/v CO2, 37° C.). On the day of the assay, test compounds in various concentrations and the agonist [Arg^8]-vasopressin at EC50 concentration are added together to the wells, and plates are incubated for 3 hours in a cell incubator. Upon addition of the cell lysis reagent Triton™ and the substrate luciferin, luminescence of firefly luciferase is measured in a luminometer.
(§3) Table 1A below lists individual IC50 values for the compounds of the invention (including racemic mixtures as well as separated enantiomers) that were obtained from cell lines transfected with the human V1a or V2 receptor: […]

[2] = biological target: T2, human V1a receptor (Homo sapiens, UniProt P37288); assay: Cellular in vitro assay for determining vasopressin receptor activity, V1a receptor cell line (aequorin luminescence); type: cell-based; conditions: for pIC50: CHO cell line transfected with the human V1a receptor, [Arg8]-vasopressin at EC50 concentration, read-out: IC50 hV1a; for ratio IC50 hV2/hV1a: ratio of the IC50 values at human V2 and human V1a receptor
T2 construct: expressed in transfected cells; host or cells: CHO K1 (ATCC), also stably transfected with a modified aequorin
Method: as §1, §2
Vasopressin V1a Receptor Cell Lines:
On the day before the assay, the cells are plated out in culture medium (DMEM/F12, 2% FCS, 2 mM glutamine, 10 mM HEPES, 5 μg/ml coelenterazine) in 384-well microtiter plates and kept in a cell incubator (96% humidity, 5% v/v CO2, 37° C.). On the day of the assay, test compounds in various concentrations are placed for 10 minutes in the wells of the microtiter plate before the agonist [Arg^8]-vasopressin at EC50 concentration is added. The resulting light signal is measured immediately in a luminometer.
as §3

T2 sequence (P37288 whole entry): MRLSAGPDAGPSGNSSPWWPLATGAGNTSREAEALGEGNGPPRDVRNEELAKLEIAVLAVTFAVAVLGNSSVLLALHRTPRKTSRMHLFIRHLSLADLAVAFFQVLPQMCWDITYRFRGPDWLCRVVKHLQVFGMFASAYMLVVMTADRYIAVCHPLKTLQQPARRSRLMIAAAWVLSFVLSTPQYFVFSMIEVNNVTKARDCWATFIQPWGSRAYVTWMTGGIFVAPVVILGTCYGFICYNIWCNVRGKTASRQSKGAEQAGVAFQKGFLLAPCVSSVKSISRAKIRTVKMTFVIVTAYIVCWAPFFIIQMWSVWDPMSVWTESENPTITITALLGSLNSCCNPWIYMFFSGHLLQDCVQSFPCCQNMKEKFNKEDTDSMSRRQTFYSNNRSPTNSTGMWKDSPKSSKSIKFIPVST
T1 sequence (P30518 whole entry): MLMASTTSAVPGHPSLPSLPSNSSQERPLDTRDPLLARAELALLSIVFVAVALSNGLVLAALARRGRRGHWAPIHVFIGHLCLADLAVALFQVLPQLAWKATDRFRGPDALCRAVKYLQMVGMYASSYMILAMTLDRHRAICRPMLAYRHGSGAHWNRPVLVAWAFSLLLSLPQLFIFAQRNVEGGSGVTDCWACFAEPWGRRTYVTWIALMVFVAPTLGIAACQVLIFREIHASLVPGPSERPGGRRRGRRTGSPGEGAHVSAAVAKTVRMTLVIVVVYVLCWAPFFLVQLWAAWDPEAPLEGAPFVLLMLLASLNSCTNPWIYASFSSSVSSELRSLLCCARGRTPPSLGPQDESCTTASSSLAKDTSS

O=c1n(Cc2nc(C(O)C(F)(F)F)n(-c3cccc(Cl)c3)n2)nc(-c2ccc(Cl)cc2)n1C[C@H](O)C(F)(F)F (single isomer, unassigned) [Example 12]
pIC50 [1]: 7.46
pIC50 [2]: 8.66
ratio IC50 hV2/hV1a [2]: 15.8

COc1ccccc1-n1nc(Cn2nc(-c3ccc(Cl)cc3)n(C[C@H](O)C(F)(F)F)c2=O)nc1C(C)(C)O [Example 3, 5-(4-Chlorophenyl)-2-{[5-(2-hydroxypropan-2-yl)-1-(2-methoxyphenyl)-1H-1,2,4-triazol-3-yl]methyl}-4-[(2S)-3,3,3-trifluoro-2-hydroxypropyl]-2,4-dihydro-3H-1,2,4-triazol-3-one]
pIC50 [1]: 8.72
pIC50 [2]: 9.10
ratio IC50 hV2/hV1a [2]: 2.4

CCC(O)c1nc(Cn2nc(-c3ccc(Cl)cc3)n(C[C@H](O)C(F)(F)F)c2=O)nn1-c1ccccc1Cl (single isomer, unassigned) [Example 6]
pIC50 [1]: 8.08
pIC50 [2]: 9.15
ratio IC50 hV2/hV1a [2]: 12.0

CC(C)(O)c1nc(Cn2nc(-c3ccc(Cl)cc3)n(C[C@H](O)C(F)(F)F)c2=O)nn1-c1cccc(Cl)c1 [Example 2, 5-(4-Chlorophenyl)-2-{[1-(3-chlorophenyl)-5-(2-hydroxypropan-2-yl)-1H-1,2,4-triazol-3-yl]methyl}-4-[(2S)-3,3,3-trifluoro-2-hydroxypropyl]-2,4-dihydro-3H-1,2,4-triazol-3-one]
pIC50 [1]: 8.48
pIC50 [2]: 7.66
ratio IC50 hV2/hV1a [2]: 0.2

CC(C)C(O)c1nc(Cn2nc(-c3ccc(Cl)cc3)n(C[C@H](O)C(F)(F)F)c2=O)nn1-c1ccccc1Cl (single isomer, unassigned) [Example 8]
pIC50 [1]: 8.66
pIC50 [2]: 9.22
ratio IC50 hV2/hV1a [2]: 3.7

CC(C)C(O)c1nc(Cn2nc(-c3ccc(Cl)cc3)n(C[C@H](O)C(F)(F)F)c2=O)nn1-c1ccccc1Cl (single isomer, unassigned) [Example 9]
pIC50 [1]: 7.60
pIC50 [2]: 9.05
ratio IC50 hV2/hV1a [2]: 28.2

CCC(O)c1nc(Cn2nc(-c3ccc(Cl)cc3)n(C[C@H](O)C(F)(F)F)c2=O)nn1-c1ccccc1Cl (single isomer, unassigned) [Example 5]
pIC50 [1]: 8.38
pIC50 [2]: 8.80
ratio IC50 hV2/hV1a [2]: 2.6

CC(C)(O)c1nc(Cn2nc(-c3ccc(Cl)cc3)n(C[C@H](O)C(F)(F)F)c2=O)nn1-c1ccccc1Cl [Example 13, 5-(4-Chlorophenyl)-2-{[1-(2-chlorophenyl)-5-(2-hydroxypropan-2-yl)-1H-1,2,4-triazol-3-yl]methyl}-4-[(2S)-3,3,3-trifluoro-2-hydroxypropyl]-2,4-dihydro-3H-1,2,4-triazol-3-one]
pIC50 [1]: 8.16
pIC50 [2]: 8.68
ratio IC50 hV2/hV1a [2]: 3.3

O=c1n(Cc2nc(C(O)C(F)(F)F)n(-c3cccc(Cl)c3)n2)nc(-c2ccc(Cl)cc2)n1C[C@H](O)C(F)(F)F (mixture of isomers) [Example 10, 5-(4-Chlorophenyl)-2-{[1-(3-chlorophenyl)-5-(2,2,2-trifluoro-1-hydroxyethyl)-1H-1,2,4-triazol-3-yl]methyl}-4-[(2S)-3,3,3-trifluoro-2-hydroxypropyl]-2,4-dihydro-3H-1,2,4-triazol-3-one]
pIC50 [1]: 8.68
pIC50 [2]: 7.87
ratio IC50 hV2/hV1a [2]: 0.2

CC(O)(C(=O)O)c1nc(Cn2nc(-c3ccc(Cl)cc3)n(C[C@H](O)C(F)(F)F)c2=O)nn1-c1ccccc1Cl (single isomer, unassigned) [Example 16]
pIC50 [1]: 6.60
pIC50 [2]: 8.26
ratio IC50 hV2/hV1a [2]: 45.8

CCC(O)c1nc(Cn2nc(-c3ccc(Cl)cc3)n(C[C@H](O)C(F)(F)F)c2=O)nn1-c1ccccc1Cl (mixture of isomers) [Example 4, 5-(4-Chlorophenyl)-2-{[1-(2-chlorophenyl)-5-(1-hydroxypropyl)-1H-1,2,4-triazol-3-yl]methyl}-4-[(2S)-3,3,3-trifluoro-2-hydroxypropyl]-2,4-dihydro-3H-1,2,4-triazol-3-one]
pIC50 [1]: 8.33
pIC50 [2]: 9.15
ratio IC50 hV2/hV1a [2]: 6.7

CC(O)(C(=O)O)c1nc(Cn2nc(-c3ccc(Cl)cc3)n(C[C@H](O)C(F)(F)F)c2=O)nn1-c1ccccc1Cl (single isomer, unassigned) [Example 15]
pIC50 [1]: 7.58
pIC50 [2]: 8.46
ratio IC50 hV2/hV1a [2]: 7.6

CC(C)(O)c1nc(Cn2nc(-c3ccc(Cl)cc3)n(C[C@H](O)C(F)(F)F)c2=O)nn1-c1cccc(F)c1 [Example 1, 5-(4-Chlorophenyl)-2-{[1-(3-fluorophenyl)-5-(2-hydroxypropan-2-yl)-1H-1,2,4-triazol-3-yl]methyl}-4-[(2S)-3,3,3-trifluoro-2-hydroxypropyl]-2,4-dihydro-3H-1,2,4-triazol-3-one]
pIC50 [1]: 7.60
pIC50 [2]: 8.18
ratio IC50 hV2/hV1a [2]: 3.8

O=c1n(Cc2nc(C(O)C(F)(F)F)n(-c3cccc(Cl)c3)n2)nc(-c2ccc(Cl)cc2)n1C[C@H](O)C(F)(F)F (single isomer, unassigned) [Example 11]
pIC50 [1]: 8.74
pIC50 [2]: 7.83
ratio IC50 hV2/hV1a [2]: 0.1

CC(C)C(O)c1nc(Cn2nc(-c3ccc(Cl)cc3)n(C[C@H](O)C(F)(F)F)c2=O)nn1-c1ccccc1Cl (mixture of isomers) [Example 7, 5-(4-Chlorophenyl)-2-{[1-(2-chlorophenyl)-5-(1-hydroxy-2-methylpropyl)-1H-1,2,4-triazol-3-yl]methyl}-4-[(2S)-3,3,3-trifluoro-2-hydroxypropyl]-2,4-dihydro-3H-1,2,4-triazol-3-one]
pIC50 [1]: 8.29
pIC50 [2]: 9.10
ratio IC50 hV2/hV1a [2]: 6.4

CC(O)(C(=O)O)c1nc(Cn2nc(-c3ccc(Cl)cc3)n(C[C@H](O)C(F)(F)F)c2=O)nn1-c1ccccc1Cl (mixture of isomers) [Example 14, 2-[1-(2-Chlorophenyl)-3-({3-(4-chlorophenyl)-5-oxo-4-[(2S)-3,3,3-trifluoro-2-hydroxypropyl]-4,5-dihydro-1H-1,2,4-triazol-1-yl}methyl)-1H-1,2,4-triazol-5-yl]-2-hydroxypropanoic acid]
pIC50 [1]: 7.12
pIC50 [2]: 7.78
ratio IC50 hV2/hV1a [2]: 4.6
